SMILES strings stand for the structures.

The values below come from patent US20230167073A1 (Teijin Pharma Limited, priority 2020, published 2023).

The first test has as its target T1, Human TRPC6 (Homo sapiens, UniProt Q9Y210).
T1 construct: expressed in transfected cells
T1 sequence (Q9Y210 1-931): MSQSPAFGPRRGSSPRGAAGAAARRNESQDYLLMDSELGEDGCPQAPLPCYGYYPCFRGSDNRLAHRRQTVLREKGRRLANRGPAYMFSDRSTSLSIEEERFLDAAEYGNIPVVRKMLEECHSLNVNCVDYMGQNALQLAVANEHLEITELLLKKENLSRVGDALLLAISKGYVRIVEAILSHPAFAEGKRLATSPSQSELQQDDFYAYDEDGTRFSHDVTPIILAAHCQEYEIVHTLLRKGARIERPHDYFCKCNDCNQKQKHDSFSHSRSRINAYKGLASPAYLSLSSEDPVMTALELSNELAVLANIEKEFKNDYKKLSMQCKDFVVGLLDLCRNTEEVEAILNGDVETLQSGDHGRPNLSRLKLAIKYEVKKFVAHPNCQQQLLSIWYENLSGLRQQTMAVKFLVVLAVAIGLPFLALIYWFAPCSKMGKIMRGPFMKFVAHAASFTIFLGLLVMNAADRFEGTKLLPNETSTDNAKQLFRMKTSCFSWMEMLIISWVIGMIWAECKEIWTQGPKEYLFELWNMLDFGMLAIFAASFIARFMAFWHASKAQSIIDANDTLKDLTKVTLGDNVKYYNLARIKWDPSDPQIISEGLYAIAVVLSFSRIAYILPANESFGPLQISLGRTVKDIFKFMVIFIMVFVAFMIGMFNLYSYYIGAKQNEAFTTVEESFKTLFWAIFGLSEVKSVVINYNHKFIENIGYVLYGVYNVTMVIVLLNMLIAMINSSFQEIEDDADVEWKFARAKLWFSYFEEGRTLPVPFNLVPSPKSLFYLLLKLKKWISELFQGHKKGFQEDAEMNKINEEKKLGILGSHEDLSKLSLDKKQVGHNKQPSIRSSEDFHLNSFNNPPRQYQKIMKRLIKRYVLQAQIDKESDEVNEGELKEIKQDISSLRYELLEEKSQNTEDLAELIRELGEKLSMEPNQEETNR
Kind of test: Evaluation of TRPC6 channel inhibitory activity (1), FLIPR Calcium 5 Assay Kit, OAG stimulation (Compound Nos. 1-1293). Format: cell-based.
Conditions: not given
In short, it runs like this:
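Calcium influx read by FLIPR fluorescence in cells stably expressing human TRPC6, dye-loaded 30 min. Compounds preincubated 20 min, then OAG stimulation at 30 μM final. Inhibition fitted by four-parameter logistic regression to give pIC50, reported as +/++/+++ categories.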
`Cc1cc(Oc2cc(C#N)ccc2-c2ncc(CCN)cn2)cc(N2C3CCC2COC3)n1` [compound 445, 4-[5-(2-aminoethyl)pyrimidin-2-yl]-3-[2-methyl-6-(3-oxa-8-azabicyclo[3.2.1]octan-8-yl)pyridin-4-yl]oxybenzonitrile]: the IC50 is under 10 nM.

The same test, now with this note: Human TRPC6 stably-expressing cells, OAG 30 μM, FLIPR Calcium 5 Assay Kit; read-out: Inhibitory activity (pIC50 class) (converted).
Take `CCc1cc(Oc2cc(C#N)ccc2-n2cc(CC(N)C(=O)O)c3ccccc32)n(C)n1` (stereo not drawn) [compound 460, 2-amino-3-[1-[4-cyano-2-(5-ethyl-2-methylpyrazol-3-yl)oxyphenyl]indol-3-yl]propanoic acid]: the IC50 is over 1000 nM.
Consider `Cc1nc(Oc2cc(C#N)ccc2-c2ncc(CCN)cn2)cc(N(C)CC2CC2)n1` [compound 861, 4-[5-(2-aminoethyl)pyrimidin-2-yl]-3-[6-[cyclopropylmethyl(methyl)amino]-2-methylpyrimidin-4-yl]oxybenzonitrile], for which the IC50 was under 10 nM.
The same measure, in the same setting: to `Cc1scnc1-c1cc(Oc2cc(C#N)ccc2-c2ncc(CN)cn2)n(C)n1` [compound 963, 4-[5-(aminomethyl)pyrimidin-2-yl]-3-[2-methyl-5-(5-methyl-1,3-thiazol-4-yl)pyrazol-3-yl]oxybenzonitrile] belongs under 10 nM.
Turning to `Cc1nc(Oc2cc(C#N)ccc2-c2ccc(CCN)cc2)cc(N2CCC[C@H]2C#N)n1` [Compound 112, (2S)-1-[6-[2-[4-(2-aminoethyl)phenyl]-5-cyanophenoxy]-2-methylpyrimidin-4 yl]pyrrolidine-2-carbonitrile], the IC50 is under 10 nM.
Regarding `Cc1c(Oc2cc(F)ccc2-c2ncc(CCN)cn2)cnn1CC(F)(F)F` [compound 970, 2-[2-[4-fluoro-2-[5-methyl-1-(2,2,2-trifluoroethyl)pyrazol-4-yl]oxyphenyl]pyrimidin-5-yl]ethanamine], the IC50 was over 1000 nM.
For `Cc1nc(-c2cccc(F)c2)cn1Cc1cc(C#N)ccc1-c1ccc(CCN)cn1` [compound 1156, 4-[5-(2-aminoethyl)pyridin-2-yl]-3-[[4-(3-fluorophenyl)-2-methylimidazol-1-yl]methyl]benzonitrile], the IC50 was under 10 nM.
On the same count and under the same terms, the same measure for `Cn1nc(C2CC2)cc1Oc1cc(C#N)ccc1-c1ncc(OCCN)cn1` [compound 385, 4-[5-(2-aminoethoxy)pyrimidin-2-yl]-3-(5-cyclopropyl-2-methylpyrazol-3-yl)oxybenzonitrile]: 10 to 1000 nM; for `NCCc1cnc(-c2ccc(F)cc2C(=O)c2cnn(CC(F)F)c2)nc1` [compound 1098, [2-[5-(2-aminoethyl)pyrimidin-2-yl]-5-fluorophenyl]-[1-(2,2-difluoroethyl)pyrazol-4-yl]methanone]: over 1000 nM.
On the same count and under the same terms, the same measure for `Cn1nc(N2CCCC2)cc1Oc1cc(C#N)ccc1-c1ccc(CCN)cn1` [compound 542, 4-[5-(2-aminoethyl)pyridin-2-yl]-3-(2-methyl-5-pyrrolidin-1-ylpyrazol-3-yl)oxybenzonitrile]: under 10 nM; for `Cn1nc(C2CC2)cc1Oc1cc(C#N)ccc1-c1ccc(CCNCC#N)cn1` [Compound 286, 4-[5-[2-(cyanomethylamino)ethyl]pyridin-2-yl]-3-(5-cyclopropyl-2-methylpyrazol-3-yl)oxybenzonitrile]: 10 to 1000 nM.
Still for that read-out and setting: to `N#Cc1ccc(-c2ccc(CCN)nc2)c(Oc2cc(Cl)cnn2)c1` [Compound 79, 4-[6-(2-aminoethyl)pyridin-3-yl]-3-(5-chloropyridazin-3-yl)oxybenzonitrile] belongs over 1000 nM.
In the case of `Cc1csc(-c2cc(Oc3cc(C#N)ccc3-c3ncc(CN)cn3)n(C)n2)n1` [compound 959, 4-[5-(aminomethyl)pyrimidin-2-yl]-3-[2-methyl-5-(4-methyl-1,3-thiazol-2-yl)pyrazol-3-yl]oxybenzonitrile], the IC50 is 10 to 1000 nM.
Turning to `N#Cc1ccc(-c2ncc(CCN)cn2)c(Cn2cc(N3CCOCC3)cn2)c1` [compound 1200, 4-[5-(2-aminoethyl)pyrimidin-2-yl]-3-[(4-morpholin-4-ylpyrazol-1-yl)methyl]benzonitrile], the IC50 is 10 to 1000 nM.
For the molecule `Cc1nc(Oc2cc(C#N)ccc2-c2ncc(CN)cn2)cc(N2CCC[C@H]2C)n1` [compound 794, 4-[5-(aminomethyl)pyrimidin-2-yl]-3-[2-methyl-6-[(2R)-2-methylpyrrolidin-1-yl]pyrimidin-4-yl]oxybenzonitrile], the IC50 is 10 to 1000 nM.
Same read-out and setting: to `Cn1nc(-c2ccccn2)cc1Oc1nc(C#N)ccc1-c1ncc(CN)cn1` [compound 1283, 5-[5-(aminomethyl)pyrimidin-2-yl]-6-(2-methyl-5-pyridin-2-ylpyrazol-3-yl)oxypyridine-2-carbonitrile] belongs over 1000 nM.
On to `N#Cc1ccc(-c2ccc(CCN)cc2)c(Oc2cnnc(-c3ccccc3O)c2)c1` [Compound 70, 4-[4-(2-aminoethyl)phenyl]-3-[6-(2-hydroxyphenyl)pyridazin-4-yl]oxybenzonitrile], for which the IC50 was under 10 nM.
Still for that read-out and setting: the same measure for `Cc1nc(Oc2cc(C#N)ccc2-c2ccc(C(=O)CN)cc2)cc(N2CCOCC2)n1` [Compound 8, 4-[4-(2-aminoacetyl)phenyl]-3-(2-methyl-6-morpholin-4-ylpyrimidin-4-yl)oxybenzonitrile]: over 1000 nM.
On the same count and under the same terms, the same measure for `Cc1ccc(-c2cc(Oc3cc(C#N)ccc3-c3ccc(CCN)nc3)n(C)n2)nc1` [Compound 181, 4-[6-(2-aminoethyl)pyridin-3-yl]-3-[2-methyl-5-(5-methylpyridin-2-yl)pyrazol-3-yl]oxybenzonitrile]: 10 to 1000 nM; for `Cc1cc(Oc2cc(C#N)ccc2-c2ccc([C@H](O)CN)cn2)cc(-c2nccs2)n1` [compound 689, 4-[5-[(1S)-2-amino-1-hydroxyethyl]pyridin-2-yl]-3-[2-methyl-6-(1,3-thiazol-2-yl)pyridin-4-yl]oxybenzonitrile]: 10 to 1000 nM.
Consider `Cc1nc(-c2cncc(F)c2)cn1Cc1cc(C#N)ccc1-c1ncc(CCN)cn1` [compound 1194, 4-[5-(2-aminoethyl)pyrimidin-2-yl]-3-[[4-(5-fluoropyridin-3-yl)-2-methylimidazol-1-yl]methyl]benzonitrile], for which the IC50 is over 1000 nM.
For `Cc1nc(Oc2cc(C#N)ccc2-c2ccc([C@H](O)CN)cn2)cc(N2CCCC2)n1` [compound 507, 4-[5-[(1S)-2-amino-1-hydroxyethyl]pyridin-2-yl]-3-(2-methyl-6-pyrrolidin-1-ylpyrimidin-4-yl)oxybenzonitrile], the IC50 is under 10 nM.
Turning to `Cc1nc(-c2ccccc2)cn1Cc1cc(C#N)ccc1-c1ncc(CCN)cn1` [compound 1137, 4-[5-(2-aminoethyl)pyrimidin-2-yl]-3-[(2-methyl-4-phenylimidazol-1-yl)methyl]benzonitrile], the IC50 is under 10 nM.
Turning to `Cn1nc(-c2cccc(F)c2)cc1Oc1cc(C#N)ccc1-c1ccc(CCN)cc1` [Compound 186, 4-[4-(2-aminoethyl)phenyl]-3-[5-(3-fluorophenyl)-2-methylpyrazol-3-yl]oxybenzonitrile], the IC50 is under 10 nM.
Same read-out and setting: to `N#Cc1ccc(-c2ncc(CCN)cn2)c(Cn2ncc(-c3ccccc3)n2)c1` [compound 1169, 4-[5-(2-aminoethyl)pyrimidin-2-yl]-3-[(4-phenyltriazol-2-yl)methyl]benzonitrile] belongs over 1000 nM.
Same read-out and setting: to `Cn1nc(C2CC2)cc1Oc1cc(C#N)ccc1-c1ccc(C(N)C(=O)O)cn1` (stereo not drawn) [compound 426, 2-amino-2-[6-[4-cyano-2-(5-cyclopropyl-2-methylpyrazol-3-yl)oxyphenyl]pyridin-3-yl]acetic acid] belongs under 10 nM; to `Cc1nc(Oc2cc(C#N)ccc2-c2ncc(CN)cn2)cc(N2CCOCC2)n1` [compound 467, 4-[5-(aminomethyl)pyrimidin-2-yl]-3-(2-methyl-6-morpholin-4-ylpyrimidin-4-yl)oxybenzonitrile], under 10 nM; to `N#Cc1ccc(-c2ccc(CCN)cn2)c(C(=O)c2sc(N3CCOCC3)nc2C(F)(F)F)c1` [compound 1077, 4-[5-(2-aminoethyl)pyridin-2-yl]-3-[2-morpholin-4-yl-4-(trifluoromethyl)-1,3-thiazole-5-carbonyl]benzonitrile], under 10 nM.
In the case of `Cn1nc(-c2ccccn2)cc1Oc1cc(C#N)ccc1-c1ncc(CN)cn1` [compound 394, 4-[5-(aminomethyl)pyrimidin-2-yl]-3-(2-methyl-5-pyridin-2-ylpyrazol-3-yl)oxybenzonitrile], the IC50 is under 10 nM.
Consider `Cc1cc(Oc2cc(C#N)ccc2-c2ncc(CCN)cn2)no1` [compound 677, 4-[5-(2-aminoethyl)pyrimidin-2-yl]-3-[(5-methyl-1,2-oxazol-3-yl)oxy]benzonitrile], for which the IC50 is over 1000 nM.
